From patent publication US8501812B2, “Therapeutic methods for type I diabetes” (University of Massachusetts, priority 2005, dated 2013)

Tests used:
[1] = solubility in aqueous media; assay type: physicochemical
JNK2 = target: T1, JNK2 (Homo sapiens, UniProt P45984); experiment: c-Jun phosphorylation assay with His6-JNK2 and GST-c-Jun(1-79), γ-32P ATP; assay type: biochemical; conditions: assay consistently shows, despite variability
T1 construct: His6 (N)
Experimental: For example, to 10 μL of 5-amino-anthra(9,1-cd)isothiazol-6-one in 20% DMSO/80% dilution buffer containing of 20 mM HEPES (pH 7.6), 0.1 mM EDTA, 2.5 mM magnesium chloride, 0.004% Triton×100, 2 μg/mL leupeptin, 20 mM β-glycerolphosphate, 0.1 mM sodium vanadate, and 2 mM DTT in water is added 30 μL of 50-200 ng His6-JNK2 in the same dilution buffer. The mixture is pre-incubated for 30 minutes at room temperature. Sixty μL of 10 μg GST-c-Jun(1-79) in assay buffer consisting of 20 mM HEPES (pH 7.6), 50 mM sodium chloride, 0.1 mM EDTA, 24 mM magnesium chloride, 1 mM DTT, 25 mM PNPP, 0.05% Triton×100, 11 μM ATP, and 0.5 μCi γ-32P ATP in water is added and the reaction is allowed to proceed for 1 hour at room temperature. The c-Jun phosphorylation is terminated by addition of 150 μL of 12.5% trichloroacetic acid. After 30 minutes, the precipitate is harvested onto a filter plate, diluted with 50 μL of the scintillation fluid and quantified by a counter. The IC50 values are calculated as the concentration of 5-amino-anthra(9,1-cd)isothiazol-6-one at which the c-Jun phosphorylation is reduced to 50% of the control value. Compounds that inhibit JNK2 preferably have an IC50 value ranging 0.01-10 μM in this assay. 5-Amino-anthra(9,1-cd)isothiazol-6-one has an IC50 according to this assay of 1 μM for JNK2 and 400 nM for JNK3.

T1 sequence (P45984 whole entry): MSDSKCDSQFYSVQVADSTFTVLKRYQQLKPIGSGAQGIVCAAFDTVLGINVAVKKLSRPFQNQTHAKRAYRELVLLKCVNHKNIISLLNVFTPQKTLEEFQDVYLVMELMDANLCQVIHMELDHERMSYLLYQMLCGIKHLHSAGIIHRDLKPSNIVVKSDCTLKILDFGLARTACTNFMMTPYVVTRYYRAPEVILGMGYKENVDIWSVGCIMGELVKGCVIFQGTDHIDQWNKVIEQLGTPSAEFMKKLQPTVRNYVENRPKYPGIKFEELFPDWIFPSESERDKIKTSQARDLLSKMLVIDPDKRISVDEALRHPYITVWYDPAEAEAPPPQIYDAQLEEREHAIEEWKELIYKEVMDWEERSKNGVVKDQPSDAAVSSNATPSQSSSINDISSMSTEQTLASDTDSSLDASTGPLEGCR

## Nc1ccc2snc3c2c1C(=O)c1ccccc1-3 [5-amino-anthra(9,1-cd)isothiazol-6-one]
[1]
  solubility in aqueous media: limited solubility
JNK2
  selectivity of JNK2 inhibition: selectively inhibits JNK2
